Experimental data: patent USRE39591E1, “6-O-substituted ketolides having antibacterial activity” (Abbott Laboratories, priority 1996, dated 2007)
Converted amounts (≈) assume the structure as drawn.

Tested on: up to 32 different microorganisms
Assay: in vitro antibacterial activity (MIC), agar dilution on Brain Heart Infusion (BHI) agar with Steers replicator
Type: cell-based
Settings: unit assumed
Summary of the method: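 Up to 32 strains were replicator-inoculated (1:100, or 1:10 for Micrococcus and Streptococcus) onto BHI agar plates holding serial compound dilutions and kept 20-24 h at 35-37° C. Plates were read visually against drug-free growth controls, with erythromycin A run alongside; MIC was the lowest concentration giving no growth, slight haze or sparse colonies.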

[1] = Candida albicans CCH 442 (code TT)
[2] = Enterococcus faecism ATCC 8043 (code II)
[3] = Escherichia coli DC-2 (code SS)
[4] = Escherichia coli JUHL (code QQ)
[5] = Haemophilis influenzae DILL AMP R (code WW)
[6] = Micrococcus luteus ATCC 4698 (code PP)
[7] = Micrococcus luteus ATCC 9341 (code OO)
[8] = Mycobacterium smegmatis ATCC 114 (code UU)
[9] = Nocardia Asteroides ATCC9970 (code VV)
[10] = Staphylococcus aureus 1775 (code GG)
[11] = Staphylococcus aureus A5177 (code BB)
[12] = Staphylococcus aureus A-5278 (code CC)
[13] = Staphylococcus aureus ATCC 6538P (code AA)
[14] = Staphylococcus aureus CMX 553 (code FF)
[15] = Staphylococcus aureus CMX 642A (code DD)
[16] = Staphylococcus aureus NCTC10649M (code EE)
[17] = Staphylococcus epidermidis 3519 (code HH)
[18] = Streptococcus Pneumonia 5649 (code ZZA)
[19] = Streptococcus Pneumonia 5979 (code ZZ)
[20] = Streptococcus Pneumonia ATCC6303 (code XX)
[21] = Streptococcus Pneumonia GYR 1171 (code YY)
[22] = Streptococcus agalactiae CMX 508 (code KK)
[23] = Streptococcus bovis A-5169 (code JJ)
[24] = Streptococcus pyogenes 930 (code MM)
[25] = Streptococcus pyogenes EES61 (code LL)
[26] = Streptococcus pyogenes PIU 2548 (code NN)

`CC[C@H]1OC(=O)[C@H](C)C(=O)[C@H](C)[C@@H](O[C@@H]2O[C@H](C)C[C@H](N(C)C)[C@H]2O)[C@@](C)(OCC#CBr)C[C@@H](C)C(=O)[C@H](C)[C@H]2NC(=O)O[C@@]21C` [Example 258, Compound of Formula (IX): L is CO, T is NH, R is —CH2—C≡C—Br] showed an MIC (organism code AA) of 0.78 µg/mL, an MIC (organism code BB) of 0.39 µg/mL and an MIC (organism code CC) of over 100 µg/mL. The MIC (organism code DD) was 0.78 µg/mL, the MIC (organism code EE) was 0.39 µg/mL and the MIC (organism code FF) was 0.78 µg/mL. The MIC (organism code GG) was over 100 µg/mL, the MIC (organism code HH) was 0.78 µg/mL and the MIC (organism code II) was 0.39 µg/mL. For the same molecule, the MIC (organism code JJ) was 0.05 µg/mL, the MIC (organism code KK) was 0.1 µg/mL and the MIC (organism code LL) was 0.05 µg/mL. It also gave an MIC (organism code MM) of over 100 µg/mL, an MIC (organism code NN) of 0.2 µg/mL and an MIC (organism code OO) of 0.1 µg/mL. For the same molecule, the MIC (organism code PP) was 0.39 µg/mL, the MIC (organism code QQ) was over 100 µg/mL and the MIC (organism code RR) was 0.78 µg/mL. The MIC (organism code SS) was over 100 µg/mL, the MIC (organism code TT) was over 100 µg/mL and the MIC (organism code UU) was 12.5 µg/mL. The MIC (organism code VV) was 0.39 µg/mL, the MIC (organism code WW) was 32 µg/mL and the MIC (organism code XX) was 0.03 µg/mL. For the same molecule, the MIC (organism code YY) was 0.03 µg/mL, the MIC (organism code ZZ) was over 128 µg/mL and the MIC (organism code ZZA) was 0.125 µg/mL.

Work on `CC[C@H]1OC(=O)[C@H](C)C(=O)[C@H](C)[C@@H](O[C@@H]2O[C@H](C)C[C@H](N(C)C)[C@H]2O)[C@@](C)(OCC#Cc2ccc3ncccc3c2)C[C@@H](C)C(=O)[C@H](C)[C@H]2NC(=O)O[C@@]21C` [Example 254, Compound of Formula (IX): L is CO, T is NH, R is —CH2—C≡C-(6-quinolyl)] yielded an MIC (organism code AA) of 0.1 µg/mL, an MIC (organism code BB) of 0.1 µg/mL and an MIC (organism code CC) of over 100 µg/mL. It also gave an MIC (organism code DD) of 0.1 µg/mL, an MIC (organism code EE) of 0.1 µg/mL and an MIC (organism code FF) of 0.1 µg/mL. The MIC (organism code GG) was over 100 µg/mL, the MIC (organism code HH) was 0.1 µg/mL and the MIC (organism code II) was 0.02 µg/mL. The MIC (organism code JJ) was at most 0.005 µg/mL, the MIC (organism code KK) was 0.01 µg/mL and the MIC (organism code LL) was 0.01 µg/mL. It also gave an MIC (organism code MM) of 0.78 µg/mL, an MIC (organism code NN) of 0.1 µg/mL and an MIC (organism code OO) of 0.02 µg/mL. The MIC (organism code PP) was 0.1 µg/mL, the MIC (organism code QQ) was 25 µg/mL and the MIC (organism code RR) was 0.2 µg/mL. For the same molecule, the MIC (organism code SS) was 100 µg/mL, the MIC (organism code TT) was over 100 µg/mL and the MIC (organism code UU) was 0.78 µg/mL. It also gave an MIC (organism code VV) of 0.01 µg/mL, an MIC (organism code WW) of 2 µg/mL and an MIC (organism code XX) of at most 0.004 µg/mL. For the same molecule, the MIC (organism code YY) was at most 0.004 µg/mL, the MIC (organism code ZZ) was 2 µg/mL and the MIC (organism code ZZA) was 0.25 µg/mL.

`CC[C@H]1OC(=O)[C@H](C)C(=O)[C@H](C)[C@@H](O[C@@H]2O[C@H](C)C[C@H](N(C)C)[C@H]2O)[C@@](C)(OCC=Cc2ccc(Cl)cc2)C[C@@H](C)C(=O)[C@H](C)[C@@H](O)[C@]1(C)O` [Example 17, Compound of Formula (VIII): X is O, R is —CH2CH═CH-(4-chlorophenyl)] was tested, and the MIC [1] was 50 µg/mL, the MIC [2] was 1.56 µg/mL and the MIC [3] was over 100 µg/mL. For the same molecule, the MIC [4] was over 100 µg/mL, the MIC (Escherichia coli SS (code RR)) was 12.5 µg/mL and the MIC [5] was 64 µg/mL. For the same molecule, the MIC [6] was 0.78 µg/mL, the MIC [7] was 0.39 µg/mL and the MIC [8] was 3.1 µg/mL. For the same molecule, the MIC [9] was 3.1 µg/mL, the MIC [10] was 50 µg/mL and the MIC [11] was 1.56 µg/mL. The MIC [12] was 50 µg/mL, the MIC [13] was 1.56 µg/mL and the MIC [14] was 1.56 µg/mL. The MIC [15] was 1.56 µg/mL, the MIC [16] was 1.56 µg/mL and the MIC [17] was 1.56 µg/mL. For the same molecule, the MIC [18] was 2 µg/mL, the MIC [19] was 32 µg/mL and the MIC [20] was 1 µg/mL. For the same molecule, the MIC [21] was 0.5 µg/mL, the MIC [22] was 0.78 µg/mL and the MIC [23] was 0.39 µg/mL. It also gave an MIC [24] of 25 µg/mL, an MIC [25] of 0.78 µg/mL and an MIC [26] of 0.78 µg/mL.

In the case of `CC[C@H]1OC(=O)[C@H](C)C(=O)[C@H](C)[C@@H](O[C@@H]2O[C@H](C)C[C@H](N(C)C)[C@H]2O)[C@@](C)(OCc2ccc3ccccc3c2)C[C@@H](C)C(=O)[C@H](C)[C@@H](O)[C@]1(C)O` [Example 173], the MIC [1] is reported as 100 µg/mL (≈ 140 µM), the MIC [2] is reported as 1.56 µg/mL (≈ 2.19 µM) and the MIC [3] is reported as over 100 µg/mL. It also gave an MIC [4] of over 100 µg/mL, an MIC (Escherichia coli SS (code RR)) of 50 µg/mL (≈ 70 µM) and an MIC [5] of 128 µg/mL (≈ 179 µM). The MIC [6] was 3.1 µg/mL (≈ 4.34 µM), the MIC [7] was 0.78 µg/mL (≈ 1.09 µM) and the MIC [8] was 3.1 µg/mL (≈ 4.34 µM). It also gave an MIC [9] of 6.2 µg/mL (≈ 8.68 µM), an MIC [10] of 100 µg/mL (≈ 140 µM) and an MIC [11] of 50 µg/mL (≈ 70 µM). For the same molecule, the MIC [12] was 100 µg/mL (≈ 140 µM), the MIC [13] was 12.5 µg/mL (≈ 17.5 µM) and the MIC [14] was 12.5 µg/mL (≈ 17.5 µM). It also gave an MIC [15] of 12.5 µg/mL (≈ 17.5 µM), an MIC [16] of 12.5 µg/mL (≈ 17.5 µM) and an MIC [17] of 12.5 µg/mL (≈ 17.5 µM). It also gave an MIC [18] of 4 µg/mL (≈ 5.6 µM), an MIC [19] of 32 µg/mL (≈ 44.8 µM) and an MIC [20] of 2 µg/mL (≈ 2.8 µM). It also gave an MIC [21] of 2 µg/mL (≈ 2.8 µM), an MIC [22] of 0.78 µg/mL (≈ 1.09 µM) and an MIC [23] of 0.78 µg/mL (≈ 1.09 µM). It also gave an MIC [24] of 50 µg/mL (≈ 70 µM), an MIC [25] of 0.78 µg/mL (≈ 1.09 µM) and an MIC [26] of 3.1 µg/mL (≈ 4.34 µM).
